Reference: patent US20090082266A1, “CONJUGATE OF WATER-SOLUBLE HYALURONIC ACID MODIFICATION PRODUCT WITH GLP-A ANALOGUE” (priority 2005, published 2009)

Legend:
[1] = test system: BKS. Cg −+Lepr^db/+Lepr^db/Jcl mice; assay: Oral glucose tolerance test, intravenous administration (Example 5-4); type: in vivo; conditions: glucose 3 g/kg orally 1 minute later, AUC up to 4 hours, mean
Protocol: After 8 weeks old male BKS. Cg −+Lepr^db/+Lepr^db/Jcl mice (Japan CLEA Co. Ltd.) were fasted overnight, the HA-GLP-1 analogue 1 conjugate solution, which was obtained in Example 5-2 and diluted with solvent Z (at doses as peptide, 1.5 μg/kg, 15 μg/kg or 150 μg/kg), or solvent Z was intravenously administered to the mice. After 1 minute of the intravenous administration, 50% glucose solution (Otsuka Pharamaceutical Co. Ltd.) was orally administered at a dose of 3 g glucose/kg. […] After 1 minute of the intravenous administration, 50% glucose solution was orally administered at a dose of 3 g glucose/kg. Tests were carried out on groups consisting of 6 mice per group.
Before the glucose administration (0 hour), 0.5, 1, 2 and 4 hours after the administration, blood was collected from the tail, and the blood glucose level was measured by an enzymatic assay (hexokinase method; Reagent, Autosera S GLU (Daiichi Pure Chemicals Co. Ltd.); Instrument, BioMajesty JCA-BM1250 (JEOL Co. Ltd.)).
The blood glucose lowering rate was calculated according to the following formula.

[2] = test system: BKS. Cg −+Lepr^db/+Lepr^db/Jcl mice; assay: Oral glucose tolerance test, subcutaneous administration (Example 6-5); type: in vivo; conditions: 3000 μg/kg sc, AUC up to 2 hours, mean
Protocol: After 8 weeks old male BKS. Cg −+Lepr^db/+Lepr^db/Jcl mice (Japan CLEA Co. Ltd.) were fasted overnight to 24 hours, the HA-GLP-1 analogue 2 conjugate solution, which was obtained in Example 6-2 and diluted with solvent Z (at a dose as peptide, 300 μg/kg), or solvent Z was subcutaneously administered to the mice. After 6, 24 or 48 hours of the subcutaneous administration, 50% glucose solution (Otsuka Pharamaceutical Co. Ltd.) was orally administered at a dose of 3 g glucose/kg. […] After 2 minutes or 4 hours and 2 minutes of the subcutaneous administration (in the case of solvent Z, after 1 or 5 hours) 50% glucose solution was orally administered at a dose of 3 g glucose/kg. Tests were carried out on groups consisting of 6 mice per group.
Before the glucose administration (0 hour), 0.5, 1 and 2 hours after the administration, blood was collected from the tail, and the blood glucose level was measured by an enzymatic assay (hexokinase method; Reagent, Autosera S GLU (Daiichi Pure Chemicals Co. Ltd.); Instrument, BioMajesty JCA-BM1250 (JEOL Co. Ltd.)).
The blood glucose lowering rate was calculated according to the formula described in Example 5-4.

[3] = in vivo, iv; cited from earlier work

Substance | Blood glucose lowering rate (%) ([1]; 150 μg/kg iv (conjugate: as peptide)) | Blood glucose lowering rate (%) ([1]; 1500 μg/kg iv) | Blood glucose lowering rate (%) ([2]; glucose 3 g/kg orally 2 Minutes after administration) | Blood glucose lowering rate (%) ([2]; glucose 3 g/kg orally 4 Hour 2 Minutes after administration) | half life [3] [min]
GLP-1: native GLP-1 (Human, 7-37; Peptide Institute, Inc.) | 15 | 60 | – | – | –
GLP-1 analogue 0: variant of native GLP-1 (human, 7-37) in which the second (position 8) alanine was converted to glycine (HGEGTFTSDVSSYLEGQAAKEFIAWLVKGRG; Glucagon-like peptide 1(7-37); UniProt P01275 98-128, looked up, variant A8G) | – | – | 102 | 18 | 1 to 5
